In brackets after ≈: the same amount, converted by molar mass. Activity calls are given as the source filed them. The rule behind the calls is not given here.
Assays:
Escherichia coli = test: In vitro inhibition of Escherichia coli TEM-3 growth.; type: functional
Pseudomonas aeruginosa = test: In vitro inhibition of Pseudomonas aeruginosa 18SH growth.; type: functional
Citrobacter freundii = test: In vitro inhibition of Citrobacter freundii 1982 growth.; type: functional
Beta-lactamase = Beta-lactamase (Pseudomonas aeruginosa (strain ATCC 15692 / PAO1 / 1C / PRS 101 / LMG12228), UniProt P24735); test: Inhibition of Pseudomonas aeruginosa 18SH Beta-lactamase.
Sequence of Beta-lactamase (P24735 whole entry): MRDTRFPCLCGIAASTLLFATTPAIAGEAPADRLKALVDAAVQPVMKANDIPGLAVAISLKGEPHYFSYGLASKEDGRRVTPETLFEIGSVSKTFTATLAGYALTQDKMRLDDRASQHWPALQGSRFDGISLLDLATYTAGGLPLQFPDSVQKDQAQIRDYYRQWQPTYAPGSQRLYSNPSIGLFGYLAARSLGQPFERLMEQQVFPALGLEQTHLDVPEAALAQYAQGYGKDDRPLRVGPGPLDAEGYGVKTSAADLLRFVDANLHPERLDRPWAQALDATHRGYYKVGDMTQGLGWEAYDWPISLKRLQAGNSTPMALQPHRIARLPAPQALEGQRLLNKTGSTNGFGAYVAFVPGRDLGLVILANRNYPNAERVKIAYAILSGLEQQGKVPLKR

[1] = Relative permeability as IC50 for beta lactamase inhibition in intact Citrobacter freundii growing cells to the observed IC50 in the same cells treated with 0.7% final concentration of octyl-poly(oxyethylene); type: functional
[2] = Relative permeability as IC50 for beta lactamase inhibition in intact Pseudomonas aeruginosa growing cells to the observed IC50 in the same cells treated with 0.7% final concentration of octyl-poly(oxyethylene); type: functional
[3] = target: Beta-lactamase (Pseudomonas aeruginosa (strain ATCC 15692 / PAO1 / 1C / PRS 101 / LMG12228)) (UniProt P24735)
Sequence of Beta-lactamase (Pseudomonas aeruginosa (strain ATCC 15692 / PAO1 / 1C / PRS 101 / LMG12228)) (P24735 27-397 limits assumed): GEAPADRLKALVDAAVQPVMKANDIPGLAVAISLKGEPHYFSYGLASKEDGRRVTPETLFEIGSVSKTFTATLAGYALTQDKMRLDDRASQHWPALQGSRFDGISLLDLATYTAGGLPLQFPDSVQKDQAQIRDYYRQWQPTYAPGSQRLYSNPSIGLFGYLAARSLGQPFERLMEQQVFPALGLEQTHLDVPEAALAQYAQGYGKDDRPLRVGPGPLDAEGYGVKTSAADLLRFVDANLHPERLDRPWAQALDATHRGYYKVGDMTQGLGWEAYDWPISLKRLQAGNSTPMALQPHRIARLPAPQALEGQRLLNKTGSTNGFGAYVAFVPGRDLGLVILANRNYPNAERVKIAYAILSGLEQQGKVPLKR
Description: Deacylation of 18SH Beta-lactamase of Pseudomonas aeruginosa

[4] = target: Beta-lactamase (Pseudomonas aeruginosa (strain ATCC 15692 / PAO1 / 1C / PRS 101 / LMG12228)) (UniProt P24735); remark: listed apart in the source
Description: Acylation of Pseudomonas aeruginosa 18SH Beta-lactamase

[5] = target: Beta-lactamase (Pseudomonas aeruginosa (strain ATCC 15692 / PAO1 / 1C / PRS 101 / LMG12228)) (UniProt P24735); remark: listed apart in the source
Description: Affinity for stable acyl 18SH Beta-lactamase complex of Pseudomonas aeruginosa

Beta-lactamase TEM = Beta-lactamase TEM (Escherichia coli, UniProt P62593); test: Inhibitory activity against Escherichia coli TEM-3 Beta-lactamase;NA=not active
Sequence of Beta-lactamase TEM (P62593 24-286 limits assumed): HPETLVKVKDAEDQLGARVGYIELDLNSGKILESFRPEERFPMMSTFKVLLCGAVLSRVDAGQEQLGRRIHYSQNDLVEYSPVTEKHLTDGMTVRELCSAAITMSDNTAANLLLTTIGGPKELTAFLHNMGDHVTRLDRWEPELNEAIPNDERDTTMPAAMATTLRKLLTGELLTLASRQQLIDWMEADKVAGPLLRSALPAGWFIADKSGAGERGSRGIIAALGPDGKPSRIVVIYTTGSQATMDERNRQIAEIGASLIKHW

[6] = Relative permeability as IC50 for beta lactamase inhibition in intact Citrobacter freundii growing cells to the observed IC50 in the same cells treated with 0.7% final concentration of octyl-poly(oxyethylene);NA= Not active; type: functional, cell-based
[7] = Relative permeability as IC50 for beta lactamase inhibition in intact Pseudomonas aeruginosa growing cells to the observed IC50 in the same cells treated with 0.7% final concentration of octyl-poly(oxyethylene);NA= Not active; type: functional, cell-based
[8] = target: Beta-lactamase (Pseudomonas aeruginosa (strain ATCC 15692 / PAO1 / 1C / PRS 101 / LMG12228)) (UniProt P24735); remark: listed apart in the source
Description: Time taken for deacylation of Pseudomonas aeruginosa 18SH Beta-lactamase

MIC (Escherichia coli) [µg/mL]	MIC (Pseudomonas aeruginosa) [µg/mL]	MIC (Citrobacter freundii) [µg/mL]	IC50 (Beta-lactamase) [nM]	SMILES	Ratio [1]	Ratio [2]	k off [3] [s⁻¹]	Kon [4] [s⁻¹]	Ks [5] [µM]	IC50 (Beta-lactamase TEM)	Ratio [6]	Ratio [7]	k off [8] [s⁻¹]
8	128	8	25	O=C(CNc1ccc(O)cc1)N1CC[C@@H]2[C@H]1C(=O)N2S(=O)(=O)[O-].[Na+]	–	–	–	–	–	–	–	–	–
16	> 16	> 16	1040	NC(=O)/C=C1\CN(C(=O)OCc2ccccc2)[C@@H]2C(=O)N(S(=O)(=O)[O-])[C@H]12.[Na+]	–	–	–	–	–	–	–	–	–
16	8	1	612	Cn1ccnc1SCC(=O)N1CC[C@@H]2[C@H]1C(=O)N2S(=O)(=O)[O-].[Na+]	–	–	–	–	–	–	–	–	–
16	4	1	2250	O=C1NCC[C@@H]1NC(=O)N1CC[C@@H]2[C@H]1C(=O)N2S(=O)(=O)[O-].[Na+]	–	–	–	–	–	–	–	–	–
16	16	1	24	NC(=O)c1cccc(NC(=O)N2CC[C@@H]3[C@H]2C(=O)N3S(=O)(=O)[O-])c1.[Na+]	–	–	–	–	–	–	–	–	–
8	128	1	853	Cn1cnnc1SCC(=O)N1CC[C@@H]2[C@H]1C(=O)N2S(=O)(=O)[O-].[Na+]	–	–	–	–	–	–	–	–	–
0.25 (≈ 1.26 µM)	> 32	8 (≈ 40.2 µM)	–	O=C(O)[C@H]1/C(=C/CO)O[C@@H]2CC(=O)N21 [CLAVULANIC ACID]	–	–	–	–	–	–	–	–	–
16	16	0.25	55	Cc1nn(C)c(SCC(=O)N2CC[C@@H]3[C@H]2C(=O)N3S(=O)(=O)[O-])nc1=O.[Na+]	–	–	–	–	–	–	–	–	–
16	> 16	> 16	380	O=C(OCc1ccccc1)N1C[C@H](F)[C@@H]2[C@H]1C(=O)N2S(=O)(=O)[O-].[Na+]	–	–	–	–	–	–	–	–	–
16	4	0.5	217	NC(=O)c1ccc(NC(=O)N2CC[C@@H]3[C@H]2C(=O)N3S(=O)(=O)[O-])cc1.[Na+]	–	–	–	–	–	–	–	–	–
16	4	0.25	48	NC(=O)Nc1ccc(NC(=O)N2CC[C@@H]3[C@H]2C(=O)N3S(=O)(=O)[O-])cc1.[Na+]	–	–	–	–	–	–	–	–	–
8	8	0.5	200	Cn1nnnc1SCC(=O)N1CC[C@@H]2[C@H]1C(=O)N2S(=O)(=O)[O-].[Na+]	–	–	–	–	–	–	–	–	–
16	128	8	200	O=C(OCc1ccccc1)N1CC[C@@H]2[C@H]1C(=O)N2S(=O)(=O)[O-].[Na+]	–	–	–	–	–	–	–	–	–
16	8	0.5	110	O=C(/C=C/c1c[nH]cn1)N1CC[C@@H]2[C@H]1C(=O)N2S(=O)(=O)[O-].[Na+]	–	–	–	–	–	–	–	–	–

SMILES	MIC (Escherichia coli) [µg/mL]	MIC (Pseudomonas aeruginosa) [µg/mL]	MIC (Citrobacter freundii) [µg/mL]	IC50 (Beta-lactamase) [nM]	Ratio [1]	Ratio [2]	k off [3] [s⁻¹]	Kon [4] [s⁻¹]	Ks [5] [µM]	IC50 (Beta-lactamase TEM)	Ratio [6]	Ratio [7]	k off [8] [s⁻¹]
Cn1nnnc1S[C@@H]1CN(C(=O)OCc2ccccc2)[C@@H]2C(=O)N(S(=O)(=O)[O-])[C@@H]21.[Na+]	16	–	–	613	10	68	4.1e-05	3.8	15	–	–	–	–
O=C(NC1CCNCC1)N1CC[C@@H]2[C@H]1C(=O)N2S(=O)(=O)[O-].[Na+]	16	–	–	3900	1.7	1	0.0012	1.5	1480	–	–	–	–
O=C(Nc1ccccc1)N1CC[C@@H]2[C@H]1C(=O)N2S(=O)(=O)[O-].[Na+]	4	8	2	–	–	–	–	–	–	420 nM (not active)	–	–	–
CC(C)(C)OC(=O)N1CC[C@@H]2[C@H]1C(=O)N2S(=O)(=O)[O-].[Na+]	16	–	–	1500	–	24	3.7e-05	11	127	–	inactive	–	–
NC(C(=O)N1CC[C@@H]2[C@H]1C(=O)N2S(=O)(=O)[O-])c1ccc(O)cc1.[Na+] (stereo partly drawn)	8	–	–	90	8.7	8.2	< 1e-05	2.7	6.9	–	–	–	–
CC(C)(C)OC(=O)N1CCC[C@@H]2[C@H]1C(=O)N2S(=O)(=O)[O-].[Na+]	16	–	–	145000	–	–	0.0007	0.5	3500	–	inactive	inactive	–
[NH-]C(=O)c1ccc[n+](CC(=O)N2CC[C@@H]3[C@H]2C(=O)N3S(=O)(=O)[O-])c1.[Na+]	8	–	–	27	0.8	1.2	–	0.9	65	–	–	–	9e-06
O=C(Nc1ccc(O)cc1)N1CC[C@@H]2[C@H]1C(=O)N2S(=O)(=O)[O-].[Na+]	8	–	–	155	0.6	38	5.3e-05	0.4	50	–	–	–	–
